Where two headings read alike, the source gives them in different places.
Assays:
[1] = test system: JAK1-dependent STAT6 phosphorylation downstream of IL-13 stimulation, BEAS-2B cells; experiment: JAK1 pathway assay in cell lines: P-STAT6 in BEAS-2B cells + IL13; assay type: cell-based; settings: BEAS-2B human bronchial epithelial cells, 1 hr compound preincubation, read-out: P-STAT6 BEAS2B + IL13 IC50
Method: JAK1 Pathway Assay in Cell Lines was Carried Out as Follows:
Inhibitor potency (EC50) was determined in cell-based assays designed to measure JAK1 dependent STAT phosphorylation. As noted above, inhibition of IL-4, IL-13, and IL-9 signaling by blocking the Jak/Stat signaling pathway can alleviate asthmatic symptoms in pre-clinical lung inflammation models (Mathew et al., 2001, J Exp Med 193(9): 1087-1096; Kudlacz et. al., 2008, Eur J. Pharmacol 582(1-3): 154-161).
In one assay approach, TF-1 human erythroleukemia cells obtained from the American Type Culture Collection (ATCC; Manassas, Va.) were used to measure JAK1-dependent STAT6 phosphorylation downstream of IL-13 stimulation. Prior to use in the assays, TF-1 cells were starved of GM-CSF overnight in OptiMEM medium (Life Technologies, Grand Island, N.Y.) supplemented with 0.5% charcoal/dextran stripped fetal bovine serum (FBS), 0.1 mM non-essential amino acids (NEAA), and 1 mM sodium pyruvate. The assays were run in 384-well plates in serum-free OptiMEM medium using 300,000 cells per well. In a second assay approach, BEAS-2B human bronchial epithelial cells obtained from ATCC were plated at 100,000 cells per well of a 96-well plate one day prior to the experiment. The BEAS-2B assay was run in complete growth medium (bronchial epithelial basal medium plus bulletkit; Lonza; Basel, Switzerland).
Test compounds were serially diluted 1:2 in DMSO and then diluted 1:50 in medium just before use. Diluted compounds were added to the cells, for a final DMSO concentration of 0.2%, and incubated for 30 m (for the TF-1 assay) or 1 hr (for the BEAS-2B assay) at 37° C. Then, cells were stimulated with human recombinant cytokine at their respective EC90 concentrations, as previously determined for each individual lot. Cells were stimulated with […] (R&D Systems, Minneapolis, Minn.) for 15 m/at 37° C. The TF-1 cell reactions were stopped by the direct addition of 10× lysis buffer (Cell Signaling Technologies, Danvers, Mass.), whereas the BEAS-2B cell incubations were halted by the removal of medium and addition of 1× lysis buffer. The resultant samples were frozen in the plates at −80° C. Compound mediated inhibition of STAT6 phosphorylation was measured in the cell lysates using MesoScale Discovery (MSD) technology (Gaithersburg, Md.). EC50 values were determined as the concentration of compound required for 50% inhibition of STAT phosphorylation relative to that measured for the DMSO control.

[2] = target: isolated recombinant JAK1 kinase domain (Homo sapiens, UniProt P23458); experiment: JAK enzyme assay (Caliper LabChip), JAK1 kinase domain; assay type: biochemical; settings: ATP 25 μM; 1.5 nM JAK1; Morrison tight binding model
Chain of isolated recombinant JAK1 kinase domain (P23458 875-1153 limits assumed): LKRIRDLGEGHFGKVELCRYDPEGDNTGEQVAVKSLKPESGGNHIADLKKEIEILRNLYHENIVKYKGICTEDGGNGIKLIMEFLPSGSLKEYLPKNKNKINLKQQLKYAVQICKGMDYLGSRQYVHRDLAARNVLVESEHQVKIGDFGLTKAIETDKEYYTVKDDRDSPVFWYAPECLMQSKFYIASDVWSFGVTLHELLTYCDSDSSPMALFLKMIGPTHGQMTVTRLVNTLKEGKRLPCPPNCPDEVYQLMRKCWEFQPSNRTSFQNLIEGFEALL

[3] = target: isolated recombinant JAK2 kinase domain (Homo sapiens, UniProt O60674); experiment: JAK enzyme assay (Caliper LabChip), JAK2 kinase domain; settings: ATP 25 μM, 0.2 nM JAK2, Morrison tight binding model
Chain of isolated recombinant JAK2 kinase domain (O60674 849-1124 limits assumed): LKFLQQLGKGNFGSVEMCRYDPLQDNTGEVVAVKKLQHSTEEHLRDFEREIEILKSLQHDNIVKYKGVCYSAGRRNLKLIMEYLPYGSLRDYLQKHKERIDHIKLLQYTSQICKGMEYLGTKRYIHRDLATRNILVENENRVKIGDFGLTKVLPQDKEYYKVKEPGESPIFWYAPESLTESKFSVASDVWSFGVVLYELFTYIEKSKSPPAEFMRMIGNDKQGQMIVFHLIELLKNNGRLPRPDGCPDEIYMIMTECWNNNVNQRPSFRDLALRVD
Method: JAK Enzyme Assays were Carried Out as Follows:
The activity of the isolated recombinant JAK1 and JAK2 kinase domain was measured by monitoring phosphorylation of a peptide derived from JAK3 ([sequence] fluorescently labeled on the N-terminus with 5-carboxyfluorescein) using the Caliper LabChip® technology (Caliper Life Sciences, Hopkinton, Mass.). […] Reactions were incubated at 22° C. in 384-well polypropylene microtiter plates for 30 minutes and then stopped by addition of 25 μL of an EDTA containing solution (100 mM HEPES buffer (pH 7.2), 0.015% Brij-35, 150 mM EDTA), resulting in a final EDTA concentration of 50 mM. After termination of the kinase reaction, the proportion of phosphorylated product was determined as a fraction of total peptide substrate using the Caliper LabChip® 3000 according to the manufacturer's specifications.

Structure (SMILES) | IC50 ([1]; Homo sapiens, BEAS-2B, 1 h) [nM] | Ki [2] [nM] | Ki [3] [nM] | IC50 [1] [nM]
CC(C)Sc1ccc(OC(F)F)c(-c2nn(Cc3cn(C4CCN([C@H]5CCOC5)CC4)nn3)cc2NC(=O)c2cnn3cccnc23)c1 (stereo in doubt) [Example 11, N-[3-[2-(difluoromethoxy)-5-isopropylsulfanyl-phenyl]-1-[[1-[1-[rac-(3S)-tetrahydrofuran-3-yl]-4-piperidyl]triazol-4-yl]methyl]pyrazol-4-yl]pyrazolo[1,5-a]pyrimidine-3-carboxamide; formic acid] | 23 | 0.69 | 0.49 | 
O=C(Nc1cn(CCO)nc1-c1cc(SC(CF)CF)ccc1OC(F)F)c1cnn2cccnc12 [Example 22, N-[3-[2-(difluoromethoxy)-5-[2-fluoro-1-(fluoromethyl)ethyl]sulfanyl-phenyl]-1-(2-hydroxyethyl)pyrazol-4-yl]pyrazolo[1,5-a]pyrimidine-3-carboxamide] | 18 | 0.32 | 0.19 | 
CSc1ccc(OC(F)F)c(-c2nn(CC(=O)N3CCC(O)CC3)cc2NC(=O)c2cnn3cccnc23)c1 [Example 23, N-[3-[2-(difluoromethoxy)-5-methylsulfanyl-phenyl]-1-[2-(4-hydroxy-1-piperidyl)-2-oxo-ethyl]pyrazol-4-yl]pyrazolo[1,5-a]pyrimidine-3-carboxamide] | 47 | 0.35 | 0.55 | 
CN(C)C(=O)Cn1cc(NC(=O)c2cnn3cccnc23)c(-c2cc(S(=O)(=O)C(F)F)ccc2OC(F)F)n1 [Example 50, N-(3-(2-(difluoromethoxy)-5-((difluoromethyl)sulfonyl)phenyl)-1-(2-(dimethylamino)-2-oxoethyl)-1H-pyrazol-4-yl)pyrazolo[1,5-a]pyrimidine-3-carboxamide] | 38 | 0.3 | 0.56 | 
CN(C)C(=O)Cn1cc(NC(=O)c2cnn3cccnc23)c(-c2cc(SC3COC3)ccc2OC(F)F)n1 [Example 26, N-[3-[2-(difluoromethoxy)-5-(oxetan-3-ylsulfanyl)phenyl]-1-[2-(dimethylamino)-2-oxo-ethyl]pyrazol-4-yl]pyrazolo[1,5-a]pyrimidine-3-carboxamide] | 34 | 0.32 | 0.93 | 
O=C(Nc1c[nH]nc1-c1cc(SC2CCC2)ccc1OC(F)F)c1cnn2cccnc12 [Example 9, N-[3-[5-cyclobutylsulfanyl-2-(difluoromethoxy)phenyl]-1H-pyrazol-4-yl]pyrazolo[1,5-a]pyrimidine-3-carboxamide] | 7 | 0.23 | 0.14 | 
CSc1ccc(OC(F)F)c(-c2nn(CC(N)=O)cc2NC(=O)c2cnn3cccnc23)c1 [Example 27, N-[1-(2-amino-2-oxo-ethyl)-3-[2-(difluoromethoxy)-5-methylsulfanyl-phenyl]pyrazol-4-yl]pyrazolo[1,5-a]pyrimidine-3-carboxamide] | 12 | 0.29 | 0.1 | 
CNC(=O)Cn1cc(NC(=O)c2cnn3cccnc23)c(-c2cc(SC(F)F)ccc2OC(F)F)n1 [Example 32, N-[3-[2-(difluoromethoxy)-5-(difluoromethylsulfanyl)phenyl]-1-[2-(methylamino)-2-oxo-ethyl]pyrazol-4-yl]pyrazolo[1,5-a]pyrimidine-3-carboxamide] | 14 | 0.35 | 0.51 | 
CNC(=O)Cn1cc(NC(=O)c2cnn3cccnc23)c(-c2cc(SC)ccc2OC(F)F)n1 [Example 45, N-[3-[2-(difluoromethoxy)-5-methylsulfanyl-phenyl]-1-[2-(methylamino)-2-oxo-ethyl]pyrazol-4-yl]pyrazolo[1,5-a]pyrimidine-3-carboxamide] | 8 | 0.21 | 0.21 | 
C[C@H](O)Cn1cc(Sc2ccc(OC(F)F)c(-c3nn(CC(=O)N(C)C)cc3NC(=O)c3cnn4cccnc34)c2)cn1 [Example 46, (S)-N-(3-(2-(difluoromethoxy)-5-((1-(2-hydroxypropyl)-1H-pyrazol-4-yl)thio)phenyl)-1-(2-(dimethylamino)-2-oxoethyl)-1H-pyrazol-4-yl)pyrazolo[1,5-a]pyrimidine-3-carboxamide] | 223 | 1.24 | 1.28 | 
O=C(Nc1cn(CC(=O)N2CC=CCC2)nc1-c1cc(SC2COC2)ccc1OC(F)F)c1cnn2cccnc12 [Example 25, N-[3-[2-(difluoromethoxy)-5-(oxetan-3-ylsulfanyl)phenyl]-1-[2-(3,6-dihydro-2H-pyridin-1-yl)-2-oxo-ethyl]pyrazol-4-yl]pyrazolo[1,5-a]pyrimidine-3-carboxamide] | 14 | 0.28 | 0.59 | 
O=C(Nc1c[nH]nc1-c1cc(SC(F)F)ccc1OC(F)F)c1cnn2cccnc12 [Example 30, N-[3-[2-(difluoromethoxy)-5-(difluoromethylsulfanyl)phenyl]-1H-pyrazol-4-yl]pyrazolo[1,5-a]pyrimidine-3-carboxamide] | 5 | 0.16 | 0.09 | 
O=C(Nc1cn(C2CN(C3COC3)C2)nc1-c1cc(SC2COC2)ccc1OC(F)F)c1cnn2cccnc12 [Example 35, N-[3-[2-(difluoromethoxy)-5-(oxetan-3-ylsulfanyl)phenyl]-1-[1-(oxetan-3-yl)azetidin-3-yl]pyrazol-4-yl]pyrazolo[1,5-a]pyrimidine-3-carboxamide] | 42 | 1.14 | 0.9 | 
COC(=O)N1CCN(CC2CCN(C(=O)Cn3cc(NC(=O)c4cnn5cccnc45)c(-c4cc(SC(CF)CF)ccc4OC(F)F)n3)CC2)CC1 [Example 18] | 33 | 0.4 | 1.3 | 
O=C(Nc1cn(CC(=O)N2CCC(N3CCOCC3)CC2)nc1-c1cc(SC(F)F)ccc1OC(F)F)c1cnn2cccnc12 [Example 42, N-[3-[2-(difluoromethoxy)-5-(difluoromethylsulfanyl)phenyl]-1-[2-(4-morpholino-1-piperidyl)-2-oxo-ethyl]pyrazol-4-yl]pyrazolo[1,5-a]pyrimidine-3-carboxamide] | 23 | 0.34 | 0.72 | 
CN(C)C(=O)Cn1cc(NC(=O)c2cnn3cccnc23)c(-c2cc([S+](C)[O-])ccc2OC(F)F)n1 (stereo not drawn) [Example 48, N-(3-(2-(difluoromethoxy)-5-(methylsulfinyl)phenyl)-1-(2-(dimethylamino)-2-oxoethyl)-1H-pyrazol-4-yl)pyrazolo[1,5-a]pyrimidine-3-carboxamide] | 518 | 1.35 | 4.44 | 
O=C(Nc1c[nH]nc1-c1cc(SCC(F)(F)F)ccc1OC(F)F)c1cnn2cccnc12 [Example 3, N-[3-[2-(difluoromethoxy)-5-(2,2,2-trifluoroethylsulfanyl)phenyl]-1H-pyrazol-4-yl]pyrazolo[1,5-a]pyrimidine-3-carboxamide] | 10 | 0.16 | 0.12 | 
O=C(Nc1cn(Cc2cn(C3CCN([C@@H]4CCOC4)CC3)nn2)nc1-c1cc(SC2COC2)ccc1OC(F)F)c1cnn2cccnc12 (stereo in doubt) [Example 21, N-[3-[2-(difluoromethoxy)-5-(oxetan-3-ylsulfanyl)phenyl]-1-[[1-[1-[rac-(3R)-tetrahydrofuran-3-yl]-4-piperidyl]triazol-4-yl]methyl]pyrazol-4-yl]pyrazolo[1,5-a]pyrimidine-3-carboxamide] | 57 | 0.66 | 0.38 | 
O=C(Nc1c[nH]nc1-c1cc(SC2CCCNC2)ccc1OC(F)F)c1cnn2cccnc12 (single isomer, unassigned) [Example 36, N-[3-[2-(difluoromethoxy)-5-(3-piperidylsulfanyl)phenyl]-1H-pyrazol-4-yl]pyrazolo[1,5-a]pyrimidine-3-carboxamide] |  | 91.5 | 51.7 | > 1000

From patent US20220024945A1, “THERAPEUTIC COMPOUNDS AND COMPOSITIONS, AND METHODS OF USE THEREOF” (Genentech, Inc., priority 2017, published 2022)
